Reference: patent publication US20070004660A1, “Synergistic Modulation of Flt3 Kinase Using Alkylquinolines and Alkylquinazolines” (priority 2005, published 2007)

test system: MV4-11 cells; assay: Annexin V staining (apoptosis) of MV4-11 cells; assay type: cell-based, human; settings: Tipifarnib and FLT3 inhibitor Compound A, fixed ratio 4:1, 48 hours
Description: After the compound incubations, treated cells were harvested and stained with Annexin V-PE and 7-AAD using the Guava Nexin apoptosis kit according to the protocol in the Biological Activity Measurements section hereafter. Annexin V staining peaks at 60% because cells late in apoptosis begin to fall apart and are considered debris. […] Statistical analysis using the above described method of Chou and Talalay was also performed to determine the synergy of the combination. FIG. 11b depictes the isobolar analysis of the Tipifarnib and FLT3 inhibitor Compound A combination in inducing annexin V staining. […] The magnitude of the synergistic induction of apoptosis of MV4-11 cells by the combination of an FTI and a FLT3 inhibitor could not be predicted by those skilled in the art. […]
Annexin V Staining. To examine the apoptosis of the leukemic MV4-11 cell line, cells were treated with Tipifarnib and/or FLT3 inhibitor Compound A, and Annexin V binding to phosphotidylserine on the outer leaflet of the plasma membrane of apoptotic cells was monitored using the GuavaNexin assay reagent and the Guava personal flow cytometry system (Guava Technologies; Hayward, Calif.). […] All annexin positive cells were considered apoptotic and percent Annexin positive cells was calculated.

Structure (SMILES)	shift of EC50 for induction of annexin V staining by the combination
Cn1cncc1C(N)(c1ccc(Cl)cc1)c1ccc2c(c1)c(-c1cccc(Cl)c1)cc(=O)n2C (single isomer, unassigned; (+)) [Tipifarnib, (+)-6-[amino(4-chlorophenyl)(1-methyl-1H-imidazol-5-yl)methyl]-4-(3-chlorophenyl)-1-methyl-2(1H)-quinolinone]	more than eight-fold

test system: MV4-11 cells; assay: Inhibition of MV4-11 cell proliferation (CellTiterGlo, 72 h); assay type: cell-based; settings: Homo sapiens; 72 h growth inhibition; uncertainty ±20%

Structure (SMILES)	IC50
O=C1CCCN1CCOc1cc2ncnc(C3CCN(C(=O)Nc4ccc(N5CCCC5)cc4)CC3)c2cc1F [Compound 206, 4-{6-Fluoro-7-[2-(2-oxo-pyrrolidin-1-yl)-ethoxy]-quinazolin-4-yl}-piperidine-1-carboxylic acid (4-pyrrolidin-1-yl-phenyl)-amide]	61 nM
COc1cc2c(C3CCN(C(=O)Nc4ccc(N5CCOCC5)cc4)CC3)ncnc2cc1OCCCN1CCN(C)CC1 [Compound 207, 4-{6-Methoxy-7-[3-(4-methyl-piperazin-1-yl)-propoxy]-quinazolin-4-yl}-piperidine-1-carboxylic acid (4-morpholin-4-yl-phenyl)-amide]	48 nM
COc1cc2c(C3CCN(C(=O)Nc4ccc(N5CCCC5)cc4)CC3)ncnc2cc1OCCN1CCCC1=O [Compound 209, 4-{6-Methoxy-7-[2-(2-oxo-pyrrolidin-1-yl)-ethoxy]-quinazolin-4-yl}-piperidine-1-carboxylic acid (4-pyrrolidin-1-yl-phenyl)-amide]	26 nM
O=C(Nc1ccc(N2CCCC2)cc1)N1CCC(c2ncnc3cc(N4CCOCC4)c(F)cc23)CC1 [Compound 210, 4-(6-Fluoro-7-morpholin-4-yl-quinazolin-4-yl)-piperidine-1-carboxylic acid (4-pyrrolidin-1-yl-phenyl)-amide]	102 nM
COc1cc2c(C3CCN(C(=O)Nc4ccc(N5CCCC5)cc4)CC3)ncnc2cc1N1CCOCC1 [Compound 211, 4-(6-Methoxy-7-morpholin-4-yl-quinazolin-4-yl)-piperidine-1-carboxylic acid (4-pyrrolidin-1-yl-phenyl)-amide]	20 nM
COc1cc2c(C3CCN(C(=O)Nc4ccc(N5CCOCC5)cc4)CC3)ncnc2cc1N1CCOCC1 [Compound 212, 4-(6-Methoxy-7-morpholin-4-yl-quinazolin-4-yl)-piperidine-1-carboxylic acid (4-morpholin-4-yl-phenyl)-amide]	367 nM
COc1cc2ncnc(C3CCN(C(=O)Nc4ccc(I)cc4)CC3)c2cc1OC [Example 2, 4-(6,7-Dimethoxy-quinazolin-4-yl)-piperidine-1-carboxylic acid (4-iodo-phenyl)-amide]	752 nM
COc1cc2ncnc(C3CCN(C(=O)Nc4ccc(-n5ccnc5)cc4)CC3)c2cc1OC [Example 3, 4-(6,7-Dimethoxy-quinazolin-4-yl)-piperidine-1-carboxylic acid (4-imidazol-1-yl-phenyl)-amide]	636 nM
COc1cc2ncnc(C3CCN(C(=O)Nc4ccc(NC(C)=O)cc4)CC3)c2cc1OC [Example 25, 4-(6,7-Dimethoxy-quinazolin-4-yl)-piperidine-1-carboxylic acid (4-acetylamino-phenyl)-amide]	> 10000 nM
COc1cc2ncnc(C3CCN(C(=O)Nc4ccc(N(C)C)cc4)CC3)c2cc1OC [Example 26, 4-(6,7-Dimethoxy-quinazolin-4-yl)-piperidine-1-carboxylic acid (4-dimethylamino-phenyl)-amide]	204 nM
COc1cc2ncnc(C3CCN(C(=O)Cc4ccc(C(C)C)cc4)CC3)c2cc1OC [Example 28, 1-[4-(6,7-Dimethoxy-quinazolin-4-yl)-piperidin-1-yl]-2-(4-isopropyl-phenyl)-ethanone]	15 nM
CC(C)Oc1ccc(NC(=O)N2CCC(c3ncnc4cc(Cl)ccc34)CC2)cc1 [Example 29, 4-(7-Chloro-quinazolin-4-yl)-piperidine-1-carboxylic acid (4-isopropoxy-phenyl)-amide]	315 nM
CC(C)c1ccc(NC(=O)N2CCC(c3ncnc4cc(Cl)ccc34)CC2)cc1 [Example 30, 4-(7-Chloro-quinazolin-4-yl)-piperidine-1-carboxylic acid (4-isopropyl-phenyl)-amide]	380 nM
COc1ccc2c(C3CCN(C(=O)Nc4ccc(OC(C)C)cc4)CC3)ncnc2c1 [Example 31, 4-(7-Methoxy-quinazolin-4-yl)-piperidine-1-carboxylic acid (4-isopropoxy-phenyl)-amide]	85 nM
COc1ccc2c(C3CCN(C(=O)Nc4ccc(C(C)C)cc4)CC3)ncnc2c1 [Example 32, 4-(7-Methoxy-quinazolin-4-yl)-piperidine-1-carboxylic acid (4-isopropyl-phenyl)-amide]	235 nM
CC(C)Oc1ccc(NC(=O)N2CCC(c3ncnc4cc(OCCCN5CCCCC5)ccc34)CC2)cc1 [Example 33, 4-(7-(3-Piperidin-1-yl-propoxy)-quinazolin-4-yl)-piperidine-1-carboxylic acid (4-isopropoxy-phenyl)-amide]	50 nM
CC(C)Oc1ccc(NC(=O)N2CCC(c3ncnc4cc(OCCN5CCCCC5)ccc34)CC2)cc1 [Example 34, 4-(7-(2-Piperindin-1-yl-ethoxy)-quinazolin-4-yl)-piperidine-1-carboxylic acid (4-isopropoxy-phenyl)-amide]	95 nM
CCN(CC)CCOc1ccc2c(C3CCN(C(=O)Nc4ccc(OC(C)C)cc4)CC3)ncnc2c1 [Example 35, 4-[7-(2-Diethylamino-ethoxy)-quinazolin-4-yl)-piperidine-1-carboxylic acid (4-isopropoxy-phenyl)-amide]	95 nM
CCN(CC)CCCOc1ccc2c(C3CCN(C(=O)Nc4ccc(OC(C)C)cc4)CC3)ncnc2c1 [Example 36, 4-[7-(3-Diethylamino-propoxy)-quinazolin-4-yl)-piperidine-1-carboxylic acid (4-isopropoxy-phenyl)-amide]	42 nM
CC(C)Oc1ccc(NC(=O)N2CCC(c3ncnc4cc(OCCN5CCOCC5)ccc34)CC2)cc1 [Example 37]	165 nM
CC(C)Oc1ccc(NC(=O)N2CCC(c3ncnc4cc(OCCCN5CCOCC5)ccc34)CC2)cc1 [Example 38]	16 nM
CC(C)Oc1ccc(NC(=O)N2CCC(c3ncnc4cc(OCCCN5CCN(C)CC5)ccc34)CC2)cc1 [Example 39]	14 nM
COCCOc1ccc(NC(=O)N2CCC(c3ncnc4cc(OC)c(OC)cc34)CC2)cc1 [Example 40, 4-(6,7-Dimethoxy-quinazolin-4-yl)-piperidine-1-carboxylic acid [4-(2-methoxy-ethoxy)-phenyl]-amide]	2200 nM

test system: MV-4-11 tumor xenografts; assay: not given; settings: 50 mg/kg po single agent, 16 days
From the text: Dosing was continued for sixteen consecutive days.
Values represent the mean (±sem) of 10 mice per treatment group.

Structure (SMILES)	effect on tumor growth
Cn1cncc1C(N)(c1ccc(Cl)cc1)c1ccc2c(c1)c(-c1cccc(Cl)c1)cc(=O)n2C (single isomer, unassigned; (+)) [Tipifarnib, (+)-6-[amino(4-chlorophenyl)(1-methyl-1H-imidazol-5-yl)methyl]-4-(3-chlorophenyl)-1-methyl-2(1H)-quinolinone]	ineffective

same assay, conditions: 16-day treatment, either agent alone or in combination

Structure (SMILES)	overt toxicity
Cn1cncc1C(N)(c1ccc(Cl)cc1)c1ccc2c(c1)c(-c1cccc(Cl)c1)cc(=O)n2C (single isomer, unassigned; (+)) [Tipifarnib, (+)-6-[amino(4-chlorophenyl)(1-methyl-1H-imidazol-5-yl)methyl]-4-(3-chlorophenyl)-1-methyl-2(1H)-quinolinone]	No overt toxicity

test system: MV-4-11 tumor xenografts; assay: In vivo combination study, FLT3 inhibitor Compound B and Tipifarnib, MV-4-11 xenografts; settings: 50 mg/kg po alone, Day 9
Description: The effect of combination treatment of the FLT3 Inhibitor FLT3 inhibitors of Formula I′ and Tipifarnib (Zarnestra™) on the growth of MV-4-11 human AML tumor xenografts in nude mice was tested using FLT3 inhibitor Compound B. The in vivo study was designed to extend the in vitro observations to evaluate the potential for a synergistic anti-tumor effect of FLT3 inhibitor Compound B administered orally together with Tipifarnib to nude mice bearing established MV-4-11 tumor xenografts.

Structure (SMILES)	effect on tumor volume compared to control
Cn1cncc1C(N)(c1ccc(Cl)cc1)c1ccc2c(c1)c(-c1cccc(Cl)c1)cc(=O)n2C (single isomer, unassigned; (+)) [Tipifarnib, (+)-6-[amino(4-chlorophenyl)(1-methyl-1H-imidazol-5-yl)methyl]-4-(3-chlorophenyl)-1-methyl-2(1H)-quinolinone]	not significantly reduced

same assay, conditions: 9-day treatment, either agent alone or in combination

Structure (SMILES)	overt toxicity
Cn1cncc1C(N)(c1ccc(Cl)cc1)c1ccc2c(c1)c(-c1cccc(Cl)c1)cc(=O)n2C (single isomer, unassigned; (+)) [Tipifarnib, (+)-6-[amino(4-chlorophenyl)(1-methyl-1H-imidazol-5-yl)methyl]-4-(3-chlorophenyl)-1-methyl-2(1H)-quinolinone]	No overt toxicity
